Test results taken from PMC9775191, “A Subset Screen of the Compounds Australia Scaffold Library Identifies 7-Acylaminodibenzoxazepinones as Potent and Selective Hits for Anti-Giardia Drug Discovery” (Biomedicines, 2022).

The molecules below were run on G. duodenalis BRIS/91/HEPU/1279 (assay: Primary Giardia screen at 10 µM (live-cell imaging, automated counting)). Conditions: 48 h, first singlicate assay.
Assay type: cell-based, Giardia duodenalis
In short: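 One concentration, 10 μM, is screened per compound in singlicate under microaerophilic gas (3% O2, 5% CO2, N2). Inhibition comes from automated image-based counts at 24 and 48 h, relative to 0.2% DMSO controls.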

SMILES | % Inhibition n=1 48h
Cc1ncc(C(=O)NC2C3CCCOC3C2(C)C)s1 (stereo not shown) [SN00782098] | 9.0%
CC1(C)C(NC(=O)Nc2ccc([N+](=O)[O-])cc2)C2CCCOC21 (stereo not shown) [SN00782105] | 16.3%
Cc1cc(C)n(Cc2ccc(C(=O)N3CCN(Cc4n[nH]c(C)n4)CC3)cc2)n1 [SN00782137] | 1.5%
COc1ccc(C(NC(=O)CN2CCN(Cc3n[nH]c(C)n3)CC2)C(C)C)cc1 (stereo not shown) [SN00782152] | 0.6%
CCn1cc(C2OCCC2CNC/C=C/c2ccccc2OC)cn1 (stereo not shown) [SN00782244] | 28.6%
CC(C)(C)OC(=O)N1CCN(S(=O)(=O)C2CN(C(=O)C3(CN)CCC3)C2)CC1 [SN00782268] | 1.1%
O=C(CCc1cnn(-c2ccccc2)c1)Nc1cc(C2CCOCC2)[nH]n1 [SN00782289] | 8.0%
Cc1cccc(-c2noc(Cn3cccn3)n2)c1 [SN00782358] | 0.0%
COc1ccc(CNC(=O)N2CCN(C)CC2c2ccccc2)cn1 (stereo not shown) [SN00782363] | 0.0%
CCCCn1nnnc1CN1CCCC1Cn1cncn1 (stereo not shown) [SN00782373] | 0.0%
CCn1cc(CN2CCCN(C(=O)C(C)n3cncn3)CC2)cn1 (stereo not shown) [SN00782395] | 0.0%
CCc1nnsc1C(=O)N1CCCN(Cc2ccccc2F)CC1 [SN00782451] | 0.0%
CCc1nnsc1C(=O)N1CCCN(Cc2cnn(CC)c2)CC1 [SN00782455] | 0.0%
Cc1cc(C(=O)N2CCCN(Cc3cnn(C)c3)CC2)on1 [SN00782463] | 0.0%
Cn1ncc2c(N3CCCN(C4CC4)CC3)ncnc21 [SN00782468] | 9.8%
CCN1CCCN(c2ncnc3c2c(Br)nn3C)CC1 [SN00782469] | 4.4%
Cc1ccccc1OCC(=O)N1CCN(Cc2nnc3n2CCCCC3)CC1 [SN00782472] | 0.5%
OC(CN1CCCN(C2CC2)CC1)c1ccccc1C(F)(F)F (stereo not shown) [SN00782563] | 5.9%
COCCS(=O)(=O)N1CCCC1Cn1ccnc1 (stereo not shown) [SN00782604] | 0.0%
Cc1cc(C2CCCN(C(=O)CCc3cnn(C)c3)C2)n[nH]1 (stereo not shown) [SN00782611] | 7.8%
Cc1nsc(N2CCCN(C(=O)NCc3ccccc3C)CC2)n1 [SN00782653] | 0.0%
CCc1nnc2n1CCN(Cc1csc(-c3ccsc3)n1)C2 [SN00782656] | 24.2%

SMILES | % Inhibition n=1 48h
CCCCS(=O)(=O)N1CCC2(CC1)CC2c1nc(-c2cccc(Cl)c2)no1 (stereo not shown) [SN00782685] | 0.0%
CCC(OC1CCCC1)C(=O)N1CCN(c2nccn2C)CC1 (stereo not shown) [SN00782691] | 0.0%
COc1cccc(C2(C)NC(=O)N(Cc3csc(-c4ccccc4)n3)C2=O)c1 (stereo not shown) [SN00782700] | 0.0%
O=C1CC(C(=O)N2CCCCC2Cn2cccn2)CN1C1CCCC1 (stereo not shown) [SN00782719] | 0.0%
Cc1ccccc1C1CCN(C(=O)C2CCCC2)C1 (stereo not shown) [SN00782733] | 7.3%
Cc1cnn(CC(C)NCc2nc(-c3ccccn3)no2)c1 (stereo not shown) [SN00782812] | 19.9%
COCCN1CCCN(C(=O)C2CCCN(S(C)(=O)=O)C2)CC1 (stereo not shown) [SN00782901] | 15.1%
COc1ccc(CCC(=O)N2CCCN(C(=O)c3cc(-c4cccc(Cl)c4)on3)CC2)cc1 [SN00782943] | 0.0%
CC1(C(=O)N2CCCC(CN3CCOCC3)C2)CC1(Cl)Cl (stereo not shown) [SN00782980] | 14.3%
CC(C)(C)NC(=O)CCN1CCc2[nH]nc(C(F)(F)F)c2C1 [SN00783032] | 9.6%
C=C(C)CN1Cc2ccccc2CC1c1nnc(CC)o1 (stereo not shown) [SN00783147] | 0.0%
Cc1nnc(C2Cc3ccccc3CN2CCOc2ccc(F)cc2)o1 (stereo not shown) [SN00783149] | 0.0%
CN1CCN(CC2CCN(C(=O)Cc3cccc4ccccc34)CC2)CC1 [SN00783181] | 17.7%
CCC(C)(NCc1ncc(-c2cccs2)o1)c1nccs1 (stereo not shown) [SN00783193] | 26.6%
Cc1nn(C)c(C)c1CC(C)NC(=O)NCC1CN2CCCC2CO1 (stereo not shown) [SN00783221] | 15.6%
O=C(Cc1ccc2c(c1)CCC2)N1CCC(n2cncn2)CC1 [SN00783222] | 6.3%
O=C(Nc1cccc(C(=O)N2CCC(N3CCCC3)C2)c1)c1ccco1 (stereo not shown) [SN00783226] | 0.0%
CC(=O)NCc1ccc(C(=O)N2CCCCC(N3CCCC3)C2)cc1 (stereo not shown) [SN00783239] | 4.5%
COCCN1C(=O)CCC(C(=O)O)C1c1cnn(-c2ccccc2)c1 (stereo not shown) [SN00783261] | 0.0%
CC(c1nnc(-c2cccs2)o1)N1CCc2cncnc2C1 (stereo not shown) [SN00783267] | 12.9%
CCc1ncc2c(n1)CN(Cc1nc(-c3ccco3)oc1C)CC2 [SN00783272] | 0.0%
